From patent publication US20180064662A1 (THE GENERAL HOSPITAL CORPORATION, priority 2015, published 2018)

System: PAN02 tumors
Source text: All experimental use of animals was approved by the institutional animal care and use committee at Massachusetts General Hospital (MGH). All animal procedures abided by Public Health Service Policy on Humane Care of Laboratory Animals guidelines. All mice were bred and maintained MGH animal facility. Wild-type (WT) C57BL/6 mice were originally obtained from the Jackson Laboratory (The Jackson Laboratory, Bar Harbor, Me.) but were bred and maintained in a defined-flora colony. VEGFR1 tyrosine kinase-knockout mice (Flt1^TK−/−) of mixed C57BL/6 and SV129 strain background were originally developed at the University of Tokyo, Japan (Hiratsuka et al. Proc Natl Acad Sci USA (1998)95(16): 9349-54), and subsequently backcrossed to 99.9% C57BL/6 strain background (N10 equivalent) at Massachusetts General Hospital. Strain background was verified by the Jackson Laboratory's Speed Congenic Development Service. Genotyping was performed using polymerase chain reaction (PCR) analysis, as previously described (Hiratsuka et al.). Age-matched animals were used for all experiments. Mice were maintained on a 12-h light-dark cycle in a temperature-controlled barrier facility, with ad libitum access to food and acidified water, unless otherwise specified.
Mice (7-week old) were given either 10% or a 60% fat diet (D12450J and D12492, Research Diets, New Brunswick, N.J.) for 10 weeks, as described in Surwit et al. Metabolism (1995) 44(5):645-51. Body weight was monitored weekly and mice on a high-fat diet were defined as obese if their body weight was greater than 3 SD above the weight of the low fat diet group. At the end of the experiment, animals were weighed and euthanized, and the inguinal, perigonadal, and perineal fat pads were excised and weighed.
Glucose (GTT) and insulin tolerance tests (ITT) were performed after 8 and 9 weeks on the diet, respectively. Male mice were fasted for 16 hours (5pm-9am) for GTT, or 3 hours (9am-12pm) for ITT. Glucose (0.75 mg/g body weight) or insulin (1U/kg body weight) was administered by intraperitoneal (i.p.) injection, and tail blood was sampled at 0, 15, 30, 60, 90, and 120 minutes after administration of glucose/insulin. Blood glucose levels were measured using a Precision Xtra glucose meter (Abbott Diagnostics, Bedford, MA, USA). Glucose tolerance was evaluated calculating the area under the curve (AUC) for each mouse according to the following equation: […]
C57BL/6 VEGFR1(TK)−/− or WT obese and lean mice (after 10 weeks of diets) were used for tumor implantation studies. To induce pancreatic tumors, small (˜1 mm in diameter) chunks from a PAN02 pancreatic tumor source were grafted in the pancreata of obese and lean male mice. To induce breast tumors, 1×10^6 E0771 breast cancer cells were implanted in the mammary fat pad of lean and obese female mice. About 3 weeks after implantation, tumors were removed and tissue was assessed for immune cell infiltration, gene and protein expression of inflammatory, metabolic and major signaling pathway markers. Plasma was also collected and assessed for insulin, IGF-1, glucose and inflammatory markers (see below). Metastatic burden was assessed by counting lung metastasis in the E0771 breast cancer model, and evaluating abdominal wall invasion as well as mesentery metastasis in the PAN02 pancreatic cancer model. For abdominal wall invasion, animals were scored from 0 to 3 based on the extent of invasion: 0=no invasion, 1=less than 3 metastasis, 2=less than 6 metastasis, 3=more than 6 metastasis.
Immediately following excision, tumor tissue was snap frozen and stored in liquid nitrogen until used. Total RNA was extracted and relative gene expression was determined using RT2 Profiler PCR Arrays system (Qiagen) on a Stratagene Mx3000P QPCR System.

[1] = VEGFR-1 inhibition and metformin combined

Q: Which “pericyte coverage in tumors” value [1] does the source give for `CN(C)C(=N)N=C(N)N` [metformin, 3-(diaminomethylidene)-1,1-dimethylguanidine] here?
A: Its value is “increased pericyte coverage”.

Q: What about the “vessel density in tumor and adipose tissue” value [1] of the same compound?
A: The value was “unaltered vessel density”.

Q: What about the tumor cell apoptosis (combination group) of the same compound?
A: The tumor cell apoptosis was “increased tumor cell apoptosis”.

Q: And the tumor cell proliferation (combination group)?
A: The tumor cell proliferation was “decreased proliferation”.

Q: What about the “fraction of perfused vessels” value (combination group compared to control or anti-VEGFR-1 alone) of the same compound?
A: The value was “significantly higher”.

Q: What about the “IR/IGF-1 signaling or AMPK/ACC activation” value (obese Flt1TK-/- mice with metformin) of the same compound?
A: The value was “no changes”.

Q: And the plasma insulin (obese Flt1TK-/- mice, 3 weeks after implantation of PAN02)?
A: The plasma insulin was “prevented the increased insulin”.

Q: And the PAN02 tumor weight (obese mice, VEGFR-1 inhibition and metformin combined)?
A: The PAN02 tumor weight was “at its lowest”.

Q: And the “expression of major gluconeogenic genes downregulated by VEGFR-1 inhibition” value (obese tumors)?
A: Its value is “restored expression of major gluconeogenic genes”.
